The results in this text go back to patent US20130261077A1 (priority 2012, published 2013).

The target in this assay is T1, FimH-CRD (Escherichia coli, UniProt P08191).
T1 construct: The first 177 amino acids of the FimH protein; thrombin tag (printed as 'fusion protein with thrombin') (cleaved yes); made in house; host or cells: bacteria (pET21b plasmid)
T1 sequence (P08191 22-177): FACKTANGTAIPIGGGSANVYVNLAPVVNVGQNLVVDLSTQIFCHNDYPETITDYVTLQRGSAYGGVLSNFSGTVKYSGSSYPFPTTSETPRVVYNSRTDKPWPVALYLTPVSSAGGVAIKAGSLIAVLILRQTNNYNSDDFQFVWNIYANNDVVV
Description: Competitive binding assay by fluorescence polarization, assay 1 (compounds prepared by manual serial dilution). As for the experimental part: The first 177 amino acids of the FimH protein were expressed as a fusion protein with thrombin in a pET21b plasmid in bacteria. This FimH protein sequence contains the carbohydrate recognition domain (CRD) and shall be termed FimH-CRD. Following bacterial expression of the protein, the FimH-CRD protein was purified to homogeneity and the thrombin tag removed by protease cleavage. A competitive binding assay by fluorescence polarization was performed using 5 nM of the Alexa 647 mannoside probe and 60 nM of the FimH-CRD. The samples are assayed in a low volume 384 well microtiter plate in a final volume of 20 μl. The final assay buffer conditions are the following, 50 mM Tris-Cl, ph 7.0, 100 mM NaCl, 1 mM EDTA, 5 mM β-mercaptoethanol, 0.05% BSA and 2.5% DMSO. Two assays are performed for FimH, termed assay 1 or assay 2. The assay conditions are the same for both assays except the following: assay 1 has compounds prepared by manual dilution in a serial dilution factor with 12-point dose response while assay 2 has compounds prepared by a robotics system also through a serial dilution factor (12 point dose response) and initially prepared in duplicate in 384 well-Corning polypropylene round bottom plates. The assay 2 plates have compound which is then frozen and must be thawed prior to use. Initially the Alexa 647 probe and the FimH-CRD are added to the assay buffer and then 0.5 μl of test compound (assay 1 or 2) between 0.4 nM to 75 μM final concentration are added (12 point titration with 3-fold serial dilution). Control wells for the Alexa 647 probe are prepared with the same conditions except for the addition of the FimH-CRD protein. Plates are then incubated for 5 hrs at room temperature in the dark and under humid conditions to prevent drying. Plates are read using the SpectraMax Paradigm multi-mode plate reader and the appropriate fluorescent polarization detection cartridge (Alexa-647).
Alexa 647 mannoside probe is prepared using the similar procedure reported for FAM mannoside (Han, Z. et. al., 2010, J. Med. Chem., 53, 4779) and is described in the scheme below.
To a blue colored stirred solution of (2S,3S,4S,5S,6R)-2-(4-aminobutoxy)-6-(hydroxymethyl)tetrahydropyran-3,4,5-triol (2.21 mg, 0.009 mmol) and the (2E)-2-[(2E,4E)-5-[3,3-dimethyl-5-sulfonato-1-(3-sulfonatopropyl)indol-1-ium-2-yl]penta-2,4-dienylidene]-3-[6-(2,5-dioxopyrrolidin-1-yl)oxy-6-oxo-hexyl]-3-methyl-1-(3-sulfonatopropyl)indoline-5-sulfonate (Potassium Ion (3)) (4.9 mg, 0.0044 mmol) in DMF (44 μL) is added Et3N (5.4 mg, 7.0 μL, 0.053 mmol) at RT. The solution is stirred at room temperature over night, concentrated, dissolved in water and purified on 12 g C-18 silica gel cartridge on Isolera system using acetonitrile in water (0 to 40%, 10 CV) and followed by lyophilization to afford Alexa 647 mannoside probe (3.3 mg, 34%) as deep blue solid.
The Kd values of the compounds are determined from dose response curves using twelve concentrations per compound in duplicate. Curves are fitted to data points using Fluorescence Polarization competitive displacement analysis, and Kds are interpolated from the resulting curves using GraphPad Prism software, version […] (GraphPad software Inc., San Diego, Calif., USA).
For orientation: Polarisation of emitted light reports the rotation of a fluorescent probe.
Broadly, the IC50 is the concentration that gives 50% inhibition. A lower IC50 goes with greater potency in that assay. What is called Kd is the constant that tells how readily two partners part at equilibrium. `OC[C@H]1O[C@H](c2cccc(O)c2)[C@@H](O)[C@@H](O)[C@@H]1O` [Compound 1, (2R,3S,4R,5S,6R)-2-(hydroxymethyl)-6-(3-hydroxyphenyl)tetrahydropyran-3,4,5-triol] gave an IC50 of 53 nM and a Kd of 12.3 ± 5.1 nM.
Turning to `CNC(=O)c1ccc(-c2cccc([C@H]3O[C@H](CO)[C@@H](O)[C@H](O)[C@@H]3O)c2)cc1` [Compound 2, N-methyl-4-[3-[(2R,3S,4R,5S,6R)-3,4,5-trihydroxy-6-(hydroxymethyl)tetrahydropyran-2-yl]phenyl]benzamide], the IC50 is 29 nM and the Kd is less than 5 nM.
For `CNC(=O)c1ccc(Oc2cccc([C@H]3O[C@H](CO)[C@@H](O)[C@H](O)[C@@H]3O)c2)cc1` [Compound 3, N-methyl-4-[3-[(2R,3S,4R,5S,6R)-3,4,5-trihydroxy-6-(hydroxymethyl)tetrahydropyran-2-yl]phenoxy]benzamide], in that order: 39 nM and 7.2 ± 1.1 nM.
With `CNC(=O)c1cccc(Oc2cccc([C@H]3O[C@H](CO)[C@@H](O)[C@H](O)[C@@H]3O)c2)c1` [Compound 5, N-methyl-3-[3-[(2R,3S,4R,5S,6R)-3,4,5-trihydroxy-6-(hydroxymethyl)tetrahydropyran-2-yl]phenoxy]benzamide], the IC50 was 18 nM and the Kd is less than 5 nM.
For `Cc1ccc(-c2cccc([C@H]3O[C@H](CO)[C@@H](O)[C@H](O)[C@@H]3O)c2)cc1` [Compound 6, (2R,3S,4R,5S,6R)-2-(hydroxymethyl)-6-(4′-methyl-[1,1′-biphenyl]-3-yl)tetrahydro-2H-pyran-3,4,5-triol], in that order: 87 nM and 13.7 ± 7.7 nM.
For `CC(=O)Nc1cccc(-c2cccc([C@H]3O[C@H](CO)[C@@H](O)[C@H](O)[C@@H]3O)c2)c1` [Compound 7, N-[3-[3-[(2R,3S,4R,5S,6R)-3,4,5-trihydroxy-6-(hydroxymethyl)tetrahydropyran-2-yl]phenyl]phenyl]acetamide] the same measures were 70 nM and 14.3 ± 9.1 nM.
For `OC[C@H]1O[C@H](c2cccc(-c3ccsc3)c2)[C@@H](O)[C@@H](O)[C@@H]1O` [Compound 8, (2R,3S,4R,5S,6R)-2-(hydroxymethyl)-6-[3-(3-thienyl)phenyl]tetrahydropyran-3,4,5-triol] the same measures were 155 nM and 40.1 ± 17.1 nM.
Regarding `OC[C@H]1O[C@H](c2cccc(-c3cccnc3)c2)[C@@H](O)[C@@H](O)[C@@H]1O` [Compound 9, (2R,3S,4R,5S,6R)-2-(hydroxymethyl)-6-[3-(3-pyridyl)phenyl]tetrahydropyran-3,4,5-triol], the IC50 was 163 nM and the affinity, expressed as Kd, was 28.5 ± 23.7 nM.
`OC[C@H]1O[C@H](c2cccc(-c3ccc4c(c3)OCO4)c2)[C@@H](O)[C@@H](O)[C@@H]1O` [Compound 11, (2R,3S,4R,5S,6R)-2-[3-(1,3-benzodioxol-5-yl)phenyl]-6-(hydroxymethyl)tetrahydropyran-3,4,5-triol]: the IC50 turned out to be 88 nM and the Kd was 11.9 ± 7.3 nM.
`OCc1ccccc1-c1cccc([C@H]2O[C@H](CO)[C@@H](O)[C@H](O)[C@@H]2O)c1` [Compound 13, (2R,3S,4R,5S,6R)-2-(hydroxymethyl)-6-(2′-(hydroxymethyl)-[1,1′-biphenyl]-3-yl)tetrahydro-2H-pyran-3,4,5-triol] displayed an IC50 of 195 nM and a Kd of 39.9 ± 23.6 nM.
Molecule `CN(C)Cc1ccccc1-c1cccc([C@H]2O[C@H](CO)[C@@H](O)[C@H](O)[C@@H]2O)c1` [Compound 14, (2R,3S,4R,5S,6R)-2-(2′-((dimethylamino)methyl)-[1,1′-biphenyl]-3-yl)-6-(hydroxymethyl)tetrahydro-2H-pyran-3,4,5-triol] yielded an IC50 of 551 nM and a Kd of 77.8 ± 70.4 nM.
For `OC[C@H]1O[C@H](c2cccc(-c3ccc4[nH]ccc4c3)c2)[C@@H](O)[C@@H](O)[C@@H]1O` [Compound 15], in that order: 306 nM and 48.2 ± 47.7 nM.
For `Nc1cccc(-c2cccc([C@H]3O[C@H](CO)[C@@H](O)[C@H](O)[C@@H]3O)c2)c1` [Compound 16, (2R,3S,4R,5S,6R)-2-[3-(3-aminophenyl)phenyl]-6-(hydroxymethyl)tetrahydropyran-3,4,5-triol], in that order: 247 nM and 37 ± 33.7 nM.
For `OC[C@H]1O[C@H](c2cccc(-c3ccc4cc(O)ccc4c3)c2)[C@@H](O)[C@@H](O)[C@@H]1O` [Compound 17, (2R,3S,4R,5S,6R)-2-(hydroxymethyl)-6-[3-(6-hydroxy-2-naphthyl)phenyl]tetrahydropyran-3,4,5-triol] the same measures were 48 nM and 8.6 ± 2.5 nM.
`Cn1nc(C(F)(F)F)cc1-c1cccc([C@H]2O[C@H](CO)[C@@H](O)[C@H](O)[C@@H]2O)c1` [Compound 18, (2R,3S,4R,5S,6R)-2-(hydroxymethyl)-6-(3-(1-methyl-3-(trifluoromethyl)-1H-pyrazol-5-yl)phenyl)tetrahydro-2H-pyran-3,4,5-triol] showed an IC50 of 160 nM and a Kd of 33.7 ± 15.8 nM.
For `CCCOc1ccc(F)c(-c2cccc([C@H]3O[C@H](CO)[C@@H](O)[C@H](O)[C@@H]3O)c2)c1` [Compound 19] the same measures were 52 nM and 6.2 ± 1.2 nM.
For `OC[C@H]1O[C@H](c2cccc(-c3ccc4c(c3)OCCO4)c2)[C@@H](O)[C@@H](O)[C@@H]1O` [Compound 20, (2R,3S,4R,5S,6R)-2-(3-(2,3-dihydrobenzo[b][1,4]dioxin-6-yl)phenyl)-6-(hydroxymethyl)tetrahydro-2H-pyran-3,4,5-triol] the same measures were 55 nM and 7.1 ± 2.4 nM.
In turn, `CS(=O)(=O)c1ccc(-c2cccc([C@H]3O[C@H](CO)[C@@H](O)[C@H](O)[C@@H]3O)c2)cc1` [Compound 21] registered an IC50 of 92 nM and a Kd of 12.3 ± 5.1 nM.
For `O=C(Nc1ccccc1)c1cccc([C@H]2O[C@H](CO)[C@@H](O)[C@H](O)[C@@H]2O)c1` [Compound 23, N-phenyl-3-[(2R,3S,4R,5S,6R)-3,4,5-trihydroxy-6-(hydroxymethyl)tetrahydropyran-2-yl]benzamide], in that order: 16 nM and 38.4 ± 23.6 nM.
For `Cc1cc(NC(=O)c2cccc([C@H]3O[C@H](CO)[C@@H](O)[C@H](O)[C@@H]3O)c2)n(Cc2ccccc2)n1` [Compound 24, N-(1-benzyl-3-methyl-1H-pyrazol-5-yl)-3-((2R,3S,4R,5S,6R)-3,4,5-trihydroxy-6-(hydroxymethyl)tetrahydro-2H-pyran-2-yl)benzamide], in that order: 243 nM and 56.7 ± 0.2 nM.
For `Cc1nnc(NC(=O)c2cccc([C@H]3O[C@H](CO)[C@@H](O)[C@H](O)[C@@H]3O)c2)s1` [Compound 25, N-(5-methyl-1,3,4-thiadiazol-2-yl)-3-((2R,3S,4R,5S,6R)-3,4,5-trihydroxy-6-(hydroxymethyl)tetrahydro-2H-pyran-2-yl)benzamide], in that order: 36 nM and 7 ± 0.5 nM.
On to `O=C(Nc1ccc2ncccc2c1)c1cccc([C@H]2O[C@H](CO)[C@@H](O)[C@H](O)[C@@H]2O)c1` [Compound 26, N-(quinolin-6-yl)-3-((2R,3S,4R,5S,6R)-3,4,5-trihydroxy-6-(hydroxymethyl)tetrahydro-2H-pyran-2-yl)benzamide], for which the IC50 turned out to be 100 nM and the affinity, expressed as Kd, was 16.8 ± 7.8 nM.
For `O=C(Nc1ccc2[nH]ccc2c1)c1cccc([C@H]2O[C@H](CO)[C@@H](O)[C@H](O)[C@@H]2O)c1` [Compound 27, N-(1H-indol-5-yl)-3-((2R,3S,4R,5S,6R)-3,4,5-trihydroxy-6-(hydroxymethyl)tetrahydro-2H-pyran-2-yl)benzamide], the concentration for half-maximal inhibition (IC50) was found to be 138 nM and the Kd is 37 ± 3.1 nM.
